{
  "source": "patent US20120034613A1",
  "about": "“Apparatus and Method for Testing Relationships Between Gene Expression and Physical Appearance of Skin” (NSE Products, Inc., priority 2010, published 2012)",
  "key": {"facial skin": {"test_system": "facial skin", "assay": "Cutometer measurement of extensibility of the skin, 12 week clinical study", "format": "in vivo, human", "conditions": "for Cutometer Extensibility Mean: Baseline mean 1.15", "text": "A single cutometer measurement was taken on the right side of the subject's face, in line with the corner of the eye and the edge of the nostril, to measure the extensibility of the skin. All clinical and corneometer measurements and evaluations were taken at baseline, week 1 (visit 2), week 4 (visit 3), week 8 (visit 4) and week 12 (visit 5). Ultrasound and cutometer measurements and evaluations were taken at baseline, week 4 (visit 3), week 8 (visit 4) and week 12 (visit 5). Completed patient's diaries were reviewed for compliance at each visit. Mean clinical grading and instrumentation scores at each visit were statistically compared to baseline scores using paired t-test. Changes from baseline were considered significant at the p≦0.05 level. Mean percent change from baseline and incidence of positive responders were calculated for all attributes. Comparisons, based on the average from baseline, were made between the test materials using analysis of variance (ANOVA)."}, "[1]": {"test_system": "facial skin in the crow's feet area", "assay": "Ultrasound measurement of density of the facial skin, 12 week clinical study", "format": "in vivo, human", "conditions": "for Ultrasound Density Mean: Baseline mean 18.55", "text": "Ultrasound measurements were taken on the left side of each subject's face to measure density of the facial skin in the crow's feet area. Measurements were taken with the probe oriented perpendicular to the body axis while the subjects were resting supine on a padded patient table. All clinical and corneometer measurements and evaluations were taken at baseline, week 1 (visit 2), week 4 (visit 3), week 8 (visit 4) and week 12 (visit 5). Ultrasound and cutometer measurements and evaluations were taken at baseline, week 4 (visit 3), week 8 (visit 4) and week 12 (visit 5). Completed patient's diaries were reviewed for compliance at each visit. Mean clinical grading and instrumentation scores at each visit were statistically compared to baseline scores using paired t-test. Changes from baseline were considered significant at the p≦0.05 level. Mean percent change from baseline and incidence of positive responders were calculated for all attributes. Comparisons, based on the average from baseline, were made between the test materials using analysis of variance (ANOVA)."}, "[2]": {"test_system": "human equivalent skin tissue", "assay": "RT-rt-PCR (TaqMan Low Density Arrays) gene expression confirmation, agent-exposed vs unexposed skin model", "format": "cell-based", "conditions": "Salicin 0.5% vs. Untreated Control, HPRT as Endogenous Control Gene", "procedure": "Preferably this is done with the same skin model as used with the microarray technology for measuring global gene expression. The qualities of the agent (concentration, solvent, etc.) should normally be the same.\nIn some embodiments, the agent tested is salicin at a concentration of 0.5% salicin, available from Symrise Corporation (Teterborro, N.J.). The salicin is dissolved in water. Affymetrix microarray testing provides results for thousands of genes, whereas RT-rt-PCR testing provides results for a smaller gene group. For RT-rt-PCR testing, about 90 genes are tested at a time for this particular experimental design (other designs may test as many as 390 at a time on the equipment identified below). The experimenter may choose this number based on cost.\nTo implement this step, RT-rt-PCR is conducted for specific genes known to be involved in skin aging. In one embodiment Custom TaqMan® Low Density Arrays (TLDA's) were configured using Applied Biosystems validated gene expression assays. The validated gene expression assays contain a TaqMan® fluorescent probe and primers for each target gene. Genes for the TLDA cards are selected based on either, published literature describing the genes functional role in skin cell biology and aging and/or the previous Affymetrix testing results. (See Tables 1-4). Five endogenous control genes may be included on each card. Thus, when a particular gene assembly is tested with RT-rt-PCR, the data resulting may cover more than just the set of genes as in Table 3.\n(High-Capacity cDNA Reverse Transcription Kits for 200 and 1000 Reactions Protocol (October, 2006)). cDNA was mixed with TaqMan® Universal Master Mix without UNG and loaded into the wells of the TLDA cards. The cards are run using an Applied Biosystems 7900HT instrument according to the manufacturer's cycling parameters.\nAs with the microassay, the analysis is done with a skin model exposed to the agent and a reference that is not exposed to the agent. The skin model not exposed to the agent may be used for calibration. The skin model may be human equivalent skin tissue. The target genes get normalized to a stable endogenous control (genes that are invariants in all cell types such as […]). This normalization is to account for variations that may occur during sample loading. The unexposed information gathered is used for comparison against the tested sample.\nThe formula for ΔCT (delta cycle threshold) is CT (target) minus CT (endogenous control gene). (ΔCT=CT (target)−CT (endogenous control gene)). The test system, data processing system 710 stores the data then uses process application modules 720 to take the CT values for both the exposed and unexposed and get a ΔΔCT value, which is reported for that specific gene in a log ratio scale. […] In one embodiment, data analysis is carried out according to the RQ analysis method using RQ Manager and StatMiner (v3.1) software programs.\nAt least part of the comparing of the data is performed by a computer system, such as the data processing system 710 (see FIG. 7) for performing data access and storage and various computations specified by software (process application modules 720) corresponding to the functions occurring at various described steps of this method. Additional process application modules 722 perform a parametric t-test with a Benjamini and Hochberg false discovery rate correction is performed to identify genes with a statistically significant p value equal to or less than 0.05. The up or down regulation of the gene is also identifiable from the RT-rt-PCR analysis. Results of the change in threshold cycle (ΔCT) values between the exposed and unexposed human skin tissues are calculated by a software program. The selected genes will have a cycle threshold of biological relevance. For these experiments, the selected genes have a cycle threshold of less than about <35, which is a value of biological relevance. […]"}},
  "data": [
    {"compound": "OCc1ccccc1O[C@@H]1O[C@H](CO)[C@@H](O)[C@H](O)[C@H]1O", "note": "[Salicin, 2-(Hydroxymethyl)phenyl β-D-glucospyranoside]", "values": [
      {"measurement": "Cutometer Extensibility Mean", "setting": "facial skin; Week 4", "value": 1.17},
      {"measurement": "Cutometer Extensibility % Change", "setting": "facial skin; Week 4 vs Baseline", "value": "(1.8%)"},
      {"measurement": "Cutometer Extensibility Mean", "setting": "facial skin; Week 8", "value": 1.17},
      {"measurement": "Cutometer Extensibility % Change", "setting": "facial skin; Week 8 vs Baseline", "value": "(1.3%)"},
      {"measurement": "Cutometer Extensibility Mean", "setting": "facial skin; Week 12", "value": 1.26},
      {"measurement": "Cutometer Extensibility % Change", "setting": "facial skin; Week 12 vs Baseline", "value": "(9.6%)"},
      {"measurement": "Ultrasound Density Mean", "setting": "[1]; Week 4", "value": 21.38},
      {"measurement": "Ultrasound Density % Change", "setting": "[1]; Week 4 vs Baseline", "value": "(15.2%)"},
      {"measurement": "Ultrasound Density Mean", "setting": "[1]; Week 8", "value": 23.52},
      {"measurement": "Ultrasound Density % Change", "setting": "[1]; Week 8 vs Baseline", "value": "(26.7%)"},
      {"measurement": "Ultrasound Density Mean", "setting": "[1]; Week 12", "value": 25.21},
      {"measurement": "Ultrasound Density % Change", "setting": "[1]; Week 12 vs Baseline", "value": "(35.8%)"},
      {"measurement": "CAT gene expression Direction", "setting": "[2]", "value": "down"},
      {"measurement": "CAT gene expression Log10RG", "setting": "[2]", "value": "−0.4768"},
      {"measurement": "COL4A1 gene expression Direction", "setting": "[2]", "value": "up"},
      {"measurement": "COL4A1 gene expression Log10RG", "setting": "[2]", "value": 0.2086},
      {"measurement": "DSC3 gene expression Direction", "setting": "[2]", "value": "down"},
      {"measurement": "DSC3 gene expression Log10RG", "setting": "[2]", "value": "−0.2938"},
      {"measurement": "DSP gene expression Direction", "setting": "[2]", "value": "down"},
      {"measurement": "DSP gene expression Log10RG", "setting": "[2]", "value": "−0.2223"},
      {"measurement": "FN1 gene expression Direction", "setting": "[2]", "value": "up"},
      {"measurement": "FN1 gene expression Log10RG", "setting": "[2]", "value": 0.2411},
      {"measurement": "FOXO1 gene expression Direction", "setting": "[2]", "value": "up"},
      {"measurement": "FOXO1 gene expression Log10RG", "setting": "[2]", "value": 0.2383},
      {"measurement": "IL6 gene expression Direction", "setting": "[2]", "value": "up"},
      {"measurement": "IL6 gene expression Log10RG", "setting": "[2]", "value": 0.9322},
      {"measurement": "ITGB1 gene expression Direction", "setting": "[2]", "value": "up"},
      {"measurement": "ITGB1 gene expression Log10RG", "setting": "[2]", "value": "9.36E−02"},
      {"measurement": "ITGB4 gene expression Direction", "setting": "[2]", "value": "down"},
      {"measurement": "ITGB4 gene expression Log10RG", "setting": "[2]", "value": "−0.8283"},
      {"measurement": "KRT1 gene expression Direction", "setting": "[2]", "value": "down"},
      {"measurement": "KRT1 gene expression Log10RG", "setting": "[2]", "value": "−1.112"},
      {"measurement": "KRT5 gene expression Direction", "setting": "[2]", "value": "down"},
      {"measurement": "KRT5 gene expression Log10RG", "setting": "[2]", "value": "−0.445"},
      {"measurement": "LOR gene expression Direction", "setting": "[2]", "value": "down"},
      {"measurement": "LOR gene expression Log10RG", "setting": "[2]", "value": "−1.921"},
      {"measurement": "PRKCA gene expression Direction", "setting": "[2]", "value": "up"},
      {"measurement": "PRKCA gene expression Log10RG", "setting": "[2]", "value": 0.2749},
      {"measurement": "S100A8 gene expression Direction", "setting": "[2]", "value": "down"},
      {"measurement": "S100A8 gene expression Log10RG", "setting": "[2]", "value": "−0.6307"},
      {"measurement": "S100A9 gene expression Direction", "setting": "[2]", "value": "down"},
      {"measurement": "S100A9 gene expression Log10RG", "setting": "[2]", "value": "−0.6513"},
      {"measurement": "SDC1 gene expression Direction", "setting": "[2]", "value": "down"},
      {"measurement": "SDC1 gene expression Log10RG", "setting": "[2]", "value": "−0.3961"},
      {"measurement": "SMAD7 gene expression Direction", "setting": "[2]", "value": "up"},
      {"measurement": "SMAD7 gene expression Log10RG", "setting": "[2]", "value": 0.2325},
      {"measurement": "SOD2 gene expression Direction", "setting": "[2]", "value": "up"},
      {"measurement": "SOD2 gene expression Log10RG", "setting": "[2]", "value": 0.3025},
      {"measurement": "TNC gene expression Direction", "setting": "[2]", "value": "up"},
      {"measurement": "TNC gene expression Log10RG", "setting": "[2]", "value": 0.1429},
      {"measurement": "ITGB1 gene expression Log10RG", "setting": "[2]; listed as salicin", "value": 0.09356}
    ]}
  ]
}
